Source: ChEMBL document CHEMBL5154721, “Discovery of HDAC6-Selective Inhibitor NN-390 with in Vitro Efficacy in Group 3 Medulloblastoma” (J Med Chem, 2022)
Activity calls are given as the source filed them. The rule behind the calls is not given here.

Columns and labels:
[1] = Cytotoxicity against HUVEC cells assessed as inhibition of cell growth incubated for 72 hrs measured by spectrophotometer analysis; format: toxicity, cell-based; conditions: human
[2] = target: T1, Protein deacetylase HDAC6 (Homo sapiens) (UniProt Q9UBN7); assay: Inhibition of full length human recombinant HDAC6 in human MV4-11 cells assessed as increase in acetylation of […] for 6 hrs by immunofluorescence imaging method; format: cell-based; conditions: dose 0.1-2 µM, DDE = dose-dependent effect
T1 sequence (whole entry): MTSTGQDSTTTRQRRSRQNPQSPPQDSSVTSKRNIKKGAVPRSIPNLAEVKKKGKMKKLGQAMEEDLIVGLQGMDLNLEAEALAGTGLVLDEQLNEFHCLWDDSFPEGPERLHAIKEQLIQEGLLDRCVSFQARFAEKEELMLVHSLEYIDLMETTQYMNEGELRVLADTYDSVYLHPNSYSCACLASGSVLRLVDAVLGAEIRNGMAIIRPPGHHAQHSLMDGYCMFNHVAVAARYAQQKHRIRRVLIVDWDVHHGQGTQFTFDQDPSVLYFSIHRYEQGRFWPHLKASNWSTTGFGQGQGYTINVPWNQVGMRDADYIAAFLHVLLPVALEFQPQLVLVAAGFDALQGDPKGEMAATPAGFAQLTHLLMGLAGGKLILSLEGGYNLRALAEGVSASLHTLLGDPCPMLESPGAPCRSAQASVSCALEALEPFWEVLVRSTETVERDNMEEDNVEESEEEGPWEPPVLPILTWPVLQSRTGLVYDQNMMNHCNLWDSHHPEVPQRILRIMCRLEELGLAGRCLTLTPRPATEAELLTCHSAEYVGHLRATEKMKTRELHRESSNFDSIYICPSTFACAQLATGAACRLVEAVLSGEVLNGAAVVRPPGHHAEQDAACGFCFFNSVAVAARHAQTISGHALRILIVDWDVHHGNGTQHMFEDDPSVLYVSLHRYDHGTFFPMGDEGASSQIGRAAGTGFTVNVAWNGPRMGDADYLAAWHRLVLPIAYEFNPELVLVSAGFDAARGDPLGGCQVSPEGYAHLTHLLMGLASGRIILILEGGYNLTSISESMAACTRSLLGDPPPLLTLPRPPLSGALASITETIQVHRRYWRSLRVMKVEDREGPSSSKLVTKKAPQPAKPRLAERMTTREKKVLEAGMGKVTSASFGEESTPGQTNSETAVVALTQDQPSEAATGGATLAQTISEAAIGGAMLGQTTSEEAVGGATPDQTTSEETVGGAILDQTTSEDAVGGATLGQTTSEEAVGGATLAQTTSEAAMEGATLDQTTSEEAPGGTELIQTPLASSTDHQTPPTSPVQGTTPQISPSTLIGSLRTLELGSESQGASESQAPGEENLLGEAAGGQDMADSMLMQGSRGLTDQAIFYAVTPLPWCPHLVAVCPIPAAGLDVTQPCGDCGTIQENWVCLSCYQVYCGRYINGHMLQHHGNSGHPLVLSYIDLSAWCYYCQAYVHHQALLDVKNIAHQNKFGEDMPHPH

[3] = Cytotoxicity against primary normal human fibroblast cells assessed as inhibition of cell growth incubated for 72 hrs measured by spectrophotometer analysis; format: toxicity, cell-based
HD-MB03 = assay: Antiproliferative activity against human HD-MB03 cells at 964 nM after 4 hrs by microplate reader method; format: functional, cell-based
Histone deacetylase 5 = Histone deacetylase 5 (Homo sapiens, UniProt Q9UQL6); assay: Inhibition of full length human recombinant HDAC5 expressed in Sf9 baculovirus system using FAM-labeled acetylated peptide as substrate by measuring fluorescence intensity by EMSA method
Sequence of Histone deacetylase 5 (Q9UQL6 whole entry): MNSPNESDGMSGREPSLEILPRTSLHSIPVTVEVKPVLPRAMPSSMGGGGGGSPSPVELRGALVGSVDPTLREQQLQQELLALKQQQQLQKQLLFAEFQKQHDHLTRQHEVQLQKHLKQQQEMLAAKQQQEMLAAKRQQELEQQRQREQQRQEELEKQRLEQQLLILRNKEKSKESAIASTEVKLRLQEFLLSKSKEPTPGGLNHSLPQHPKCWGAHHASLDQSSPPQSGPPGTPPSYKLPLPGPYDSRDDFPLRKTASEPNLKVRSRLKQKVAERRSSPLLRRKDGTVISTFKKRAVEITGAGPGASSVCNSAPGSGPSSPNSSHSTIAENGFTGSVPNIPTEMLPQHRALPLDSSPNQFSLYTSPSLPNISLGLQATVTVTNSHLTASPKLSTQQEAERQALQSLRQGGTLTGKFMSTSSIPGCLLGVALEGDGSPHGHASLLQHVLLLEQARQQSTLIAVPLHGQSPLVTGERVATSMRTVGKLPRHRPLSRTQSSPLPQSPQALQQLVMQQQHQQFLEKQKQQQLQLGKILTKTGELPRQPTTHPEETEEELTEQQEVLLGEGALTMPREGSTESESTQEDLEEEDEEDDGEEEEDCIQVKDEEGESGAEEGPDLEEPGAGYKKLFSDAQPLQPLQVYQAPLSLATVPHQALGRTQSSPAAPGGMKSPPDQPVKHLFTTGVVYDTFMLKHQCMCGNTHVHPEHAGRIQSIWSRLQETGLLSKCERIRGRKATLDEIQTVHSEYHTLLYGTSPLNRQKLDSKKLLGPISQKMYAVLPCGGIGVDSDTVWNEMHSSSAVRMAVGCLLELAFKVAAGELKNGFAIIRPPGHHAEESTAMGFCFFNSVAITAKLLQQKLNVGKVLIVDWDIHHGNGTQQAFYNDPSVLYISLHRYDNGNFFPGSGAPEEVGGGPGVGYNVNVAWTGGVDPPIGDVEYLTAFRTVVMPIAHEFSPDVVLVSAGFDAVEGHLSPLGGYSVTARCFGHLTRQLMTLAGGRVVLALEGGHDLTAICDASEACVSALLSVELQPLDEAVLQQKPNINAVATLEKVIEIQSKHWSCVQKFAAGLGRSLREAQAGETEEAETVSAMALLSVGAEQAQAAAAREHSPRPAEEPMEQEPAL

Histone deacetylase 9 = Histone deacetylase 9 (Homo sapiens, UniProt Q9UKV0); assay: Inhibition of full length human recombinant HDAC9 expressed in Sf9 baculovirus system using FAM-labeled acetylated peptide as substrate by measuring fluorescence intensity by EMSA method
Sequence of Histone deacetylase 9 (Q9UKV0 whole entry): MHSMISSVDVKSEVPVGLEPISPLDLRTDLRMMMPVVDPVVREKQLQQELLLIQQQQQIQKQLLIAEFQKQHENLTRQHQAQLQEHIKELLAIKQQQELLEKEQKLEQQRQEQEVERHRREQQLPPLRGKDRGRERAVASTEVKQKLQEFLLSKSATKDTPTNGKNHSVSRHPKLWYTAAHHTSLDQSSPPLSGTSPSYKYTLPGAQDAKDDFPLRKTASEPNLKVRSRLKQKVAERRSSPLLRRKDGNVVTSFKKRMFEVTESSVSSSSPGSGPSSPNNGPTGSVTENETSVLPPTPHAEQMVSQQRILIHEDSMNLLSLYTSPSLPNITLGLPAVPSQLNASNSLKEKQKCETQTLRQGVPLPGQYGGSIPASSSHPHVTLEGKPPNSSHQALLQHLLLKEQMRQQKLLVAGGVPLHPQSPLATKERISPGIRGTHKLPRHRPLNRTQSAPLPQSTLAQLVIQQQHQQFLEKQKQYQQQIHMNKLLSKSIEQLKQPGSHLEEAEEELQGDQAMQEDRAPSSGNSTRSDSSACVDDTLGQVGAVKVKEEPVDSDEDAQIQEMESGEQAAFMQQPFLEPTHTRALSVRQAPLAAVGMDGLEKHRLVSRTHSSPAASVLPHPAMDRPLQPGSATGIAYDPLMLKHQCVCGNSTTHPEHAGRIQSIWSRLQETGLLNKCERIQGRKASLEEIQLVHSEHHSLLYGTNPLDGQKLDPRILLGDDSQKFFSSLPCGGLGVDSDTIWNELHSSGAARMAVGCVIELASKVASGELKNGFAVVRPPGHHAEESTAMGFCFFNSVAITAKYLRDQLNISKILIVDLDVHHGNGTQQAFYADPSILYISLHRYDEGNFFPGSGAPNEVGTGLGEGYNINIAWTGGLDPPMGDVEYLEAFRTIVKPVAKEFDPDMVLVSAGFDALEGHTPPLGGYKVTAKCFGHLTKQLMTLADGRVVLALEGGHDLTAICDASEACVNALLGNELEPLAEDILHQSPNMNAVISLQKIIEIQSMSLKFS

Histone deacetylase 1 = Histone deacetylase 1 (Homo sapiens, UniProt Q13547); assay: Inhibition of full length human recombinant HDAC1 expressed in Sf9 baculovirus system using FAM-labeled acetylated peptide as substrate by measuring fluorescence intensity by EMSA method
Sequence of Histone deacetylase 1 (Q13547 whole entry): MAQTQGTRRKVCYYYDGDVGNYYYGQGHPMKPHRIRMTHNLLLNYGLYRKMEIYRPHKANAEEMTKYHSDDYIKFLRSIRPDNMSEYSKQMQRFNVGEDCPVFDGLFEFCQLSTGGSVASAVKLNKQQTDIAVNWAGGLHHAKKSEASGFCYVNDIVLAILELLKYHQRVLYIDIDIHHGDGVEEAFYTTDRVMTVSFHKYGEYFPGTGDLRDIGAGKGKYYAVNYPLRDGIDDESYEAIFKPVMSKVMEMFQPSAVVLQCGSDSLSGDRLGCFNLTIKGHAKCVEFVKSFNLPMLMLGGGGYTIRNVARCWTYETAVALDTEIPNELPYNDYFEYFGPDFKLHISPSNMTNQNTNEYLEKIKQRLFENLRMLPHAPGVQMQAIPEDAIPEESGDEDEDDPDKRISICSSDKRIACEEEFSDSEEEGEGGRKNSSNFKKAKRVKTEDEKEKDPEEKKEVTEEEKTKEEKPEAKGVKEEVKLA

MV4-11 [4] = assay: Induction of apoptosis in human MV4-11 cells assessed as viable cells at 1 uM after 24 hrs by Annexin V/PI staining based flow cytometric analysis (Rvb=58.28%); format: functional; conditions: read-out: Activity
[5] = Competitive inhibition of N-terminal His-SUMO tagged zebra fish recombinant HDAC6 catalytic domain 2 transfected with pET28b(+) vector in Escherichia coli BL21 (DE3) RILP cells incubated for 10 mins followed by addition of FITC-M344 measured af ter 10 mins by fluorescence polarization assay; design: species or system Danio rerio
MV4-11 [6] = assay: Induction of apoptosis in human MV4-11 cells assessed as viable cells at 0.25 uM after 24 hrs by Annexin V/PI staining based flow cytometric analysis (Rvb=58.28%); format: functional; conditions: read-out: Activity
[7] = Stability in human plasma assessed as half life measured upto 60 mins by LC-MS/MS analysis; format: ADME, cell-free
[8] = Cytotoxicity against human HD-MB03 cells assessed as inhibition of cell growth incubated for 72 hrs measured by spectrophotometer analysis; format: functional, cell-based; conditions: HD-MB03, 72 h
[9] = target: T1, Protein deacetylase HDAC6 (Homo sapiens); assay: Inhibition of full length human recombinant HDAC6 in human MV4-11 cells assessed as increase in acetylation of histone H3 for 6 hrs by immunofluorescence imaging method; format: cell-based; conditions: dose 0.1-2 µM, DDE = dose-dependent effect
MV4-11 [10] = assay: Induction of apoptosis in human MV4-11 cells assessed as viable cells at 2 uM after 24 hrs by Annexin V/PI staining based flow cytometric analysis (Rvb=58.28%); format: functional; conditions: read-out: Activity
Histone deacetylase 2 = Histone deacetylase 2 (Homo sapiens, UniProt Q92769); assay: Inhibition of full length human recombinant HDAC2 expressed in Sf9 baculovirus system using FAM-labeled acetylated peptide as substrate by measuring fluorescence intensity by EMSA method
Sequence of Histone deacetylase 2 (Q92769 whole entry): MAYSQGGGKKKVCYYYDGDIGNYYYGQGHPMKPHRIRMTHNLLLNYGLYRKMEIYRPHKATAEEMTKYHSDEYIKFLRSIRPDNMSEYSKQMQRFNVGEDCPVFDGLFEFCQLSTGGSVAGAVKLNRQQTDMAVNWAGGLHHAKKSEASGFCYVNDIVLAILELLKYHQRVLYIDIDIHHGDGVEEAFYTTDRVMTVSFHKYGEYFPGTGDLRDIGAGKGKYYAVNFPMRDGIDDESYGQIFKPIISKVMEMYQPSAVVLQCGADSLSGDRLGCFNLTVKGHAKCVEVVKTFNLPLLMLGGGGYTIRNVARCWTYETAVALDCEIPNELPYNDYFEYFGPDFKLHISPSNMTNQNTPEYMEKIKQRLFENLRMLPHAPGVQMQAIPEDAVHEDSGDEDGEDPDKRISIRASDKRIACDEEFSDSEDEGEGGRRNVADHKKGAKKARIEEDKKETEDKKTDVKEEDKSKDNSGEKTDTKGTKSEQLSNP

MV4-11 [11] = assay: Induction of apoptosis in human MV4-11 cells assessed as viable cells at 0.75 uM after 24 hrs by Annexin V/PI staining based flow cytometric analysis (Rvb=58.28%); format: functional; conditions: read-out: Activity
[12] = Lipophilicity, logP of the compound; format: physicochemical; conditions: octanol/water
[13] = target: T1, Protein deacetylase HDAC6 (Homo sapiens); assay: Binding affinity to full length human recombinant HDAC6 expressed in Sf9 baculovirus system assessed as residence time (1/koff)

CC(C)N(Cc1ccc(C(=O)NO)cc1)S(=O)(=O)c1cc(F)c(F)c(F)c1F
IC50 at 72 h [1]: 10.1 µM
inhibition [2]: Dde
IC50 at 72 h [3]: 12.4 µM
Activity (HD-MB03): Active
IC50 (Histone deacetylase 5): > 3 µM
IC50 (Histone deacetylase 9): > 5 µM
IC50 (Histone deacetylase 1): > 5 µM
viability at 1 µM (MV4-11 [4]): 56.3%
IC50 [5]: 0.139 µM
viability at 0.25 µM (MV4-11 [6]): 82%
half-life [7]: 1.92 h
IC50 [8]: 0.13 µM
inhibition [9]: Dde
viability at 2 µM (MV4-11 [10]): 32.9%
IC50 (Histone deacetylase 2): 0.316 µM
viability at 0.75 µM (MV4-11 [11]): 85.7%
logP [12]: 3.41
TIME [13]: 0.133 h
